We go through two compounds from patent publication US20250221997A1, “TYK2 INHIBITOR FORMULATIONS AND METHODS OF MAKING THE SAME” (Takeda Pharmaceutical Company Limited, priority 2022, published 2025).

Broadly, the Aqueous Solubility is how much of the substance goes into solution per volume. The low end stands for little dissolved substance, the high end for much dissolved substance. For orientation: solubility means how much of the substance goes into solution per volume. High values mean a readily soluble substance, low ones a poorly soluble substance. For orientation: pKa means the pH at which an ionisable group is half protonated.

Structures are written as SMILES. Converted amounts (≈) assume the structure as drawn. “Also recorded” adds a separate entry of the source.

Common to all, as to type: physicochemical
Data set [1] is described as follows: Solubility of Compound 1 polymorphs in aqueous systems, buffer solutions and biorelevant media. The conditions noted are these: for Aqueous Solubility: Form C Lot: a, Form A Lot: b.
Data set [2] can be described thus: Hygroscopicity (water sorption vs relative humidity).
A short description of data set [3]: Polymorph screening, competitive slurry studies and humidity storage (form stability). From the text: The key formulation challenge presented by Compound 1 was poor aqueous solubility. This could possibly limit absorption in vivo.
Data set [4] in a line: pKa, dissociation constant and pH of saturated aqueous solution. The settings on record: read-out: pKa of the protonated form. As to the method:
The pKa of the protonated form of Compound 1 was determined to be 1.94±0.01. The pH of a saturated aqueous solution of Compound 1 was 8.6.

Data set [5] is described as follows: Solubility of drug substance in excipient Vitamin E TPGS. The text has this:
Vitamin E TPGS is a commercially available, non-ionic surfactant, derived from Vitamin E. It is commonly used to enhance the bioavailability of orally administered poorly water-soluble drugs.

Take `CNc1cc(Nc2cccn(-c3ccccn3)c2=O)nc2c(C(=O)N[C@@H]3CC[C@H]3OC)cnn12` [Form C]: the Aqueous Solubility in data set [1] (10 mM HCl, pH 2.0) stood at 58 µg/mL; in data set [1] (50 mM Acetate buffer, pH 5.0) it was 13 µg/mL; in data set [1] (50 mM Phosphate buffer, pH 6.8), 4 µg/mL; in data set [1] (FaSSIF, pH 6.5), 29 µg/mL; in data set [1] (FcSSIF, pH 5.0), 41 µg/mL; in data set [1] (SGF, pH 1.2 (0.1% Triton X100)), 35 µg/mL. The solubility is 29 µg/mL (≈ 63 µM) in data set [1] (FaSSIF, pH 6.5, fassif, thermodynamic from solid); 13 µg/mL (≈ 28.2 µM) in data set [1] (aqueous buffer, thermodynamic from solid, 50 mM Acetate buffer, pH 5.0); 4 µg/mL (≈ 8.69 µM) in data set [1] (aqueous buffer, thermodynamic from solid, 50 mM Phosphate buffer, pH 6.8); 35 µg/mL (≈ 76 µM) in data set [1] (aqueous with cosolvent or surfactant or cyclodextrin, thermodynamic from solid, SGF, pH 1.2 (0.1% Triton X100)); 58 µg/mL (≈ 126 µM) in data set [1] (simulated gastric fluid, thermodynamic from solid, 10 mM HCl, pH 2.0); 41 µg/mL (≈ 89 µM) in data set [1] (thermodynamic from solid, FeSSIF, pH 5.0). The Hygroscopicity result in data set [2] was “Limited hygroscopicity”. The “Hygroscopicity, wt gain” value in data set [2] (at 75% RH) was “(1.75% wt gain at 75% RH)”. The same compound gave a water sorption in data set [2] (between 5-95% relative humidity) of 1.75%. The “relative stability of solid form” value in data set [3] (competitive slurry studies / polymorphs observed during development) is given as “most stable anhydrous, un-solvated form; also recorded: most stable polymorph observed to date”. The “Conversion of Form C to Form A” value in data set [3] (in water itself after 1 day) is “not observed”; in data set [3] (storage at 90% RH at room temperature for 11 days) it was “no conversion to Form A was observed”. In addition, in data set [3] (solvent slurries), the “water activity, aw, above which anhydrous Form C converts to hydrate Form A” value is 0.62-0.82.
Take `CNc1cc(Nc2cccn(-c3ccccn3)c2=O)nc2c(C(=O)N[C@@H]3CC[C@H]3OC)cnn12` [Compound 1]: the solubility at 48 h in data set [1] (FaSSGF, pH 1.42, fassgf or other biorelevant, thermodynamic from solid) was 34.6 µg/mL (≈ 75.1 µM); in data set [1] (aqueous buffer, thermodynamic from solid, Initial Buffer pH 2.98, pH at 48 Hours 3.01, average of two runs) it was 18.9 µg/mL (≈ 41 µM); in data set [1] (aqueous buffer, thermodynamic from solid, Initial Buffer pH 4.46, pH at 48 Hours 4.49, average of two runs) it was 13.3 µg/mL (≈ 28.9 µM); in data set [1] (aqueous buffer, thermodynamic from solid, Initial Buffer pH 6.81, pH at 48 Hours 6.75, average of two runs), 4.1 µg/mL (≈ 8.9 µM); in data set [1] (pH 8.6, thermodynamic from solid, Unbuffered water, pH at 48 Hours 8.6, average of three runs), 5.5 µg/mL (≈ 11.9 µM); in data set [1] (simulated gastric fluid, thermodynamic from solid, Initial Buffer pH 1.21, pH at 48 Hours 1.19, average of two runs) it was 58.1 µg/mL (≈ 126 µM). For the same compound, the solubility at 48 h in data set [1] (thermodynamic from solid, FaSSIF (pH 1.64), pH at 48 Hours 1.50, average of two runs) came out at 29.1 µg/mL (≈ 63.2 µM); in data set [1] (thermodynamic from solid, FeSSIF (pH 5.03), pH at 48 Hours 5.03, average of two runs) it was 41 µg/mL (≈ 89 µM). In addition, the pKa in data set [4] is 1.94. In addition, the “solubility in the excipient Vitamin E TPGS” value in data set [5] was “high solubility”.
